The structures appear in SMILES notation. Where “and” joins values, the source holds several entries; their conditions need not be identical. Identical values can stand only once.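 Cells were grown in 96-well plates and exposed to each compound for 48 hours at five concentrations; endpoints were interpolated linearly between bracketing concentrations, or set to the highest concentration if not reached. GI50: concentration for 50% inhibition of growth. TGI: concentration producing complete growth inhibition.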

Some test systems named below: CAKI-1 renal; HCT-15 colon; MCF7 breast; MDA-MB-231 breast; MDA-N; NCI-H23 lung; NCI-H522 lung; OVCAR-3 ovarian; SNB-19 CNS; SR leukemia.
What all share (experiment): NCI tumour cell line growth inhibition, 48 h

Take `COC(=O)[C@@H](NC(=O)c1ccc(CNC(=O)/C(C)=C/c2ccccc2)cc1)C(C)C`: the TGI in the test on CAKI-1 renal, in the test on HCT-15 colon, in the test on MCF7 breast, in the test with MDA-MB-231 breast, with MDA-N and in the test with NCI-H23 lung was more than 100 µM throughout. For the same molecule, the TGI with NCI-H522 lung, with OVCAR-3 ovarian, in the test with SNB-19 CNS and in the test with SR leukemia was more than 100 µM each time.

Consider `Cc1cc2c(cc1-c1cc3c(cc1C)C(C(C)C)=C(O)C(=O)/C3=C\Nc1ccccn1)/C(=C/Nc1ccccn1)C(=O)C(O)=C2C(C)C`, for which the TGI with CAKI-1 renal, in the test with HCT-15 colon, in the test with MCF7 breast, in the test with MDA-MB-231 breast, in the test on MDA-N and in the test on NCI-H23 lung was more than 100 µM throughout. The TGI was 74.8 µM in the test on NCI-H522 lung, more than 100 µM in the test on OVCAR-3 ovarian, more than 100 µM with SNB-19 CNS and more than 100 µM with SR leukemia.

Regarding `CC(=O)N1CCN(CCCCN2c3ccccc3Sc3cc(N=[N+]=[N-])ccc32)CC1`, the TGI came to 24.9 µM with CAKI-1 renal; 28.1 µM with HCT-15 colon; 28.9 µM in the test with MCF7 breast; 26.7 µM with MDA-MB-231 breast; 30.5 µM in the test with MDA-N; 30.1 µM in the test with NCI-H23 lung. The TGI amounted to 26.3 µM with NCI-H522 lung, 25.3 µM in the test with OVCAR-3 ovarian, 29.6 µM in the test with SNB-19 CNS and 26.5 µM in the test with SR leukemia.

`N#Cc1c(O)c(C=O)c(=O)n2c1[nH]c1ccccc12`: the TGI with CAKI-1 renal, with HCT-15 colon, with MCF7 breast, with MDA-MB-231 breast, in the test with MDA-N and in the test with NCI-H23 lung was more than 100 µM throughout. Also, the TGI in the test with NCI-H522 lung, in the test on OVCAR-3 ovarian, in the test with SNB-19 CNS and with SR leukemia was more than 100 µM in each case.

For the molecule `O=C(CBr)NCCc1c[nH]c2ccccc12`, the TGI in the test on CAKI-1 renal was 1.91 µM; in the test on HCT-15 colon, 4.36 µM; in the test with MCF7 breast, 4.72 µM; with MDA-MB-231 breast, 4.49 µM; with MDA-N, 4.44 µM; in the test with NCI-H23 lung, 3.19 µM. Besides, the TGI in the test with NCI-H522 lung was found to be 0.458 µM; in the test on OVCAR-3 ovarian, 4.09 µM; in the test with SNB-19 CNS, 20 µM; in the test with SR leukemia, 1 µM.

With `O=C1CCc2ccccc2O1`, the TGI with CAKI-1 renal, with HCT-15 colon, in the test on MCF7 breast, with MDA-MB-231 breast, in the test with MDA-N and in the test with NCI-H23 lung was more than 100 µM each time. Moreover, the TGI in the test with NCI-H522 lung, in the test with OVCAR-3 ovarian, in the test with SNB-19 CNS and in the test on SR leukemia was more than 100 µM in each case.

As to `O=C1C(c2c(O)[nH]c3ccc(I)cc23)=Nc2ccccc21`, the TGI was more than 96.5 µM in the test on CAKI-1 renal; more than 100 µM in the test on HCT-15 colon; 15.7 µM in the test on MCF7 breast; 8.47 µM with MDA-MB-231 breast; more than 100 µM with MDA-N; 45.7 µM in the test with NCI-H23 lung. For the same molecule, the TGI in the test with NCI-H522 lung is more than 58.9 µM; with OVCAR-3 ovarian it was 29.2 µM; with SNB-19 CNS, 42.8 µM; with SR leukemia, more than 100 µM.

In the case of `COC(=O)C1=C(C)NC2=C(C(=O)c3ccccc32)C1c1cn[nH]c1-c1ccccc1` (stereo unspecified), the TGI with CAKI-1 renal, in the test with HCT-15 colon, in the test on MCF7 breast, in the test on MDA-MB-231 breast, in the test on MDA-N and in the test on NCI-H23 lung was more than 100 µM throughout. Moreover, the TGI is more than 100 µM with NCI-H522 lung, more than 100 µM with OVCAR-3 ovarian, more than 100 µM in the test with SNB-19 CNS and 87.4 µM in the test with SR leukemia.

`CCOC(=O)C(NC(=O)c1ccccc1)(Nc1ccc(S(=O)(=O)Nc2ccc(OC)nn2)cc1)C(F)(F)F` (stereo unspecified): the TGI with CAKI-1 renal, with HCT-15 colon, in the test on MCF7 breast, with MDA-MB-231 breast, with MDA-N and in the test on NCI-H23 lung was more than 100 µM in each case. The TGI with NCI-H522 lung, in the test on OVCAR-3 ovarian, with SNB-19 CNS and with SR leukemia was more than 100 µM each time.

As for `NC(CS)C(=O)NCCNc1ccc(NCCNC(=O)C(N)CS)c2c1C(=O)c1c(O)ccc(O)c1C2=O` (stereo unspecified), the TGI is 0.566 µM and 0.104 µM with CAKI-1 renal; 0.864 µM and 0.584 µM in the test with HCT-15 colon; 1.21 µM in the test on MCF7 breast; 1.62 µM with MDA-MB-231 breast; 1.68 µM with MDA-N; 0.0636 µM and 0.0484 µM with NCI-H23 lung. Also, the TGI is 0.421 µM and 0.127 µM in the test with NCI-H522 lung; 1.76 µM and 1.58 µM in the test with OVCAR-3 ovarian; 1.11 µM and 1.21 µM in the test on SNB-19 CNS; 0.232 µM in the test with SR leukemia. The GI50 in the test on HCT-15 colon was 0.0384 µM; with NCI-H522 lung, 0.0165 µM.

On to `CC1(C)OC2OC(C(=O)c3ccccc3)C3OC(C)(C)OC3C2O1` (stereo unspecified), for which the TGI with CAKI-1 renal, with HCT-15 colon, in the test on MCF7 breast, in the test with MDA-MB-231 breast, in the test on MDA-N and with NCI-H23 lung was more than 100 µM throughout. Moreover, the TGI in the test with NCI-H522 lung, in the test with OVCAR-3 ovarian, with SNB-19 CNS and in the test with SR leukemia was more than 100 µM throughout.

For the molecule `O=C1C=CC(=O)[C@H]2C3C=CC(C4C3C3(Cl)C(Cl)=C(Cl)[C@]4(Cl)C3(Cl)Cl)[C@@H]12` (stereo partly specified), the TGI in the test on CAKI-1 renal turned out to be 30.2 µM; in the test with HCT-15 colon, 16.6 µM; in the test on MCF7 breast, 13.4 µM; in the test on MDA-MB-231 breast, 16.7 µM; with MDA-N, 15.8 µM; with NCI-H23 lung, 25.7 µM. The TGI in the test on NCI-H522 lung amounted to 23.1 µM; with OVCAR-3 ovarian, 8.98 µM; in the test with SNB-19 CNS it was 17 µM; in the test with SR leukemia it was 9.28 µM.

Turning to `Nc1nc(N)c2nc(CNc3ccc(C(=O)NC(CCNC(=O)c4ccccc4C(=O)O)C(=O)O)cc3)cnc2n1` (stereo unspecified), the GI50 in the test on CAKI-1 renal is 0.0666 µM; with HCT-15 colon it was 0.0072 µM; in the test on NCI-H23 lung, 0.0324 µM; in the test on SR leukemia, 0.00433 µM. Further, the TGI with CAKI-1 renal, with HCT-15 colon, in the test on MCF7 breast, in the test with MDA-MB-231 breast, in the test with MDA-N and in the test on NCI-H23 lung was more than 100 µM in each case. Further, the TGI in the test on NCI-H522 lung, in the test on OVCAR-3 ovarian, in the test with SNB-19 CNS and in the test with SR leukemia was more than 100 µM throughout.

`COc1ccccc1[C@@H]1CCC2CC[C@@H](c3ccccc3OC)[N+]21Cc1ccccc1` (stereo partly specified): the TGI was 18.8 µM with CAKI-1 renal; 15.2 µM in the test with HCT-15 colon; 12.2 µM with MCF7 breast; 9.83 µM with MDA-MB-231 breast; 12.6 µM in the test on MDA-N; 6.63 µM in the test with NCI-H23 lung. Further, the TGI was found to be 11.5 µM in the test with NCI-H522 lung, 10.7 µM in the test on OVCAR-3 ovarian, 16.5 µM in the test with SNB-19 CNS and 7.07 µM with SR leukemia.

In the case of `CN(C)C1(c2cc3ccccc3s2)CCCCC1`, the TGI with CAKI-1 renal, in the test with HCT-15 colon, with MCF7 breast, in the test on MDA-MB-231 breast, in the test on MDA-N and in the test with NCI-H23 lung was more than 100 µM each time. In addition, the TGI in the test on NCI-H522 lung was 41.7 µM; in the test on OVCAR-3 ovarian, more than 100 µM; with SNB-19 CNS it was more than 100 µM; in the test with SR leukemia it was 46.5 µM.

In the case of `COc1cc(C2c3cc4c(cc3OC(NNc3ccccc3)C2C)OCO4)cc(OC)c1O` (stereo unspecified), the TGI was more than 92 µM in the test on CAKI-1 renal; 11.9 µM in the test with HCT-15 colon; 13.3 µM with MCF7 breast; 8.53 µM with MDA-MB-231 breast; 2.75 µM in the test with MDA-N; 29.4 µM with NCI-H23 lung. In addition, the TGI is 12.1 µM with NCI-H522 lung, 14.8 µM in the test on OVCAR-3 ovarian, 32.5 µM in the test on SNB-19 CNS and 29.7 µM in the test on SR leukemia.

On to `CC(=O)OC12OC(C)(C3C(=O)N(c4ccccc4)C(=O)C31)N(c1ccccc1)C2=O` (stereo unspecified), for which the TGI in the test on CAKI-1 renal, in the test with HCT-15 colon, in the test on MCF7 breast, in the test on MDA-MB-231 breast, in the test on MDA-N and with NCI-H23 lung was more than 100 µM in each case. Besides, the TGI in the test on NCI-H522 lung, in the test on OVCAR-3 ovarian, in the test with SNB-19 CNS and in the test on SR leukemia was more than 100 µM throughout.

Turning to `CCOC(=O)[C@H](CO)Nc1c(O)c2c(c(O)c1Cl)C(=O)C=CC2=O`, the TGI in the test on CAKI-1 renal, in the test with HCT-15 colon, with MCF7 breast, in the test with MDA-MB-231 breast, in the test on MDA-N and with NCI-H23 lung was more than 10 µM each time. The TGI in the test on NCI-H522 lung, with OVCAR-3 ovarian, in the test with SNB-19 CNS and in the test with SR leukemia was more than 10 µM each time.

Source of the values: PubChem BioAssay (NCI).
